We go through 37 molecules from US7589097B2, “Triazol[4,5-d] pyramidine derivatives and their use as purinergic receptor antagonists” (Vernalis Research Limited, priority 2001, dated 2009).

Structures can show the parent of a compound that is named as a salt. Some results are limits rather than exact numbers.

The melting point is the temperature, or range, at which the solid turns liquid. `Nc1nc(-c2cccs2)c2nnn(Cc3ccccc3F)c2n1` [Example 35, 3-(2-fluorobenzyl)-7-(2-thienyl)-3H-[1,2,3]triazolo[4,5-d]pyrimidine-5-amine]: the melting point lay within 174 to 174.2 °C.
For `CC(C)(C)OC(=O)NCc1ccccc1Cn1nnc2c(-c3ccco3)nc(N)nc21` [Example 157, tert-butyl N-(2-(5-amino-7-(2-furyl)-3H-[1,2,3]triazolo[4,5-d]pyrimidine-3-ylmethyl)benzyl)carbamate] the value was 204.2 to 204.4 °C.
The same measure for `CC(C)c1ccc(Cn2nnc3c(-c4ccco4)nc(N)nc32)cn1` [Example 228, 7-(2-furyl)-3-(6-isopropyl-3-pyridylmethyl)-3H-[1,2,3]triazolo[4,5-d]pyrimidine-5-amine]: 164.3 to 169.3 °C.
`Nc1nc(-c2ccco2)c2nnn(Cc3cccc(Cl)c3)c2n1` [Example 27, 3-(3-chlorobenzyl)-7-(2-furyl)-3H-[1,2,3]triazolo[4,5-d]pyrimidine-5-amine] yielded a melting point of 209.9 to 210.1 °C.
For `Cc1ccc(-c2nc(N)nc3c2nnn3Cc2cccc(N)c2)o1` [Example 36, 3-(3-aminobenzyl)-7-(5-methyl-2-furyl)-3H-[1,2,3]triazolo[4,5-d]pyrimidine-5-amine] the value was 231.7 to 234 °C.
Regarding `Cc1ccc(-c2nc(N)nc3c2nnn3Cc2c(F)cccc2F)o1` [Example 60, 3-(2,6-difluorobenzyl)-7-(5-methyl-2-furyl)-3H-[1,2,3]triazolo[4,5-d]pyrimidine-5-amine], the melting point fell in the range of 209.7 to 209.8 °C.
The same measure for `NCc1cccc(Cn2nnc3c(-c4ccn[nH]4)nc(N)nc32)c1` [Example 101, 3-(3-Aminomethylbenzyl)-7-(1H-pyrazol-3-yl)-3H-[1,2,3]triazolo[4,5-d]pyrimidine-5-amine]: 279.9 to 280.3 °C.
As for `CC(C)(C)OC(=O)Nc1ccc(Cn2nnc3c(-c4ccco4)nc(N)nc32)cc1F` [Example 143, tert-butyl N-(4-(5-amino-7-(2-furyl)-3H-[1,2,3]triazolo[4,5-d]pyrimidine-3-ylmethyl)-2-fluorophenyl)carbamate], the melting point fell in the range of 167 to 167.3 °C.
For `Nc1nc(-c2ccco2)c2nnn(Cc3ccsc3)c2n1` [Example 179, 7-(2-furyl)-3-(3-thienylmethyl)-3H-[1,2,3]triazolo[4,5-d]pyrimidine-5-amine] the value was 215.8 to 216.9 °C.
On to `CN(C)c1cccc(Cn2nnc3c(-c4ccco4)nc(N)nc32)c1` [Example 162, 3-(3-(N,N-dimethylamino)benzyl)-7-(2-furyl)-3H-[1,2,3]triazolo[4,5-d]pyrimidine-5-amine], for which the melting point was in the range of 195.1 to 195.2 °C.
In the case of `Cc1cccc(Cn2nnc3c(-c4ccc(C)o4)nc(N)nc32)n1` [Example 59, 7-(5-methyl-2-furyl)-3-(6-methyl-2-pyridylmethyl)-3H-[1,2,3]triazolo[4,5-d]pyrimidine-5-amine], the melting point lay in the range of 187.9 to 188.7 °C.
For `Cc1cccnc1Cn1nnc2c(-c3ccco3)nc(N)nc21` [Example 95, 7-(2-furyl)-3-(3-methyl-2-pyridylmethyl)-3H-[1,2,3]triazolo[4,5-d]pyrimidine-5-amine] the value was 249.8 to 250 °C.
For `Nc1nc(-c2ccco2)c2nnn(CC(=O)c3ccccc3[N+](=O)[O-])c2n1` [Example 235, 2-(5-amino-7-(2-furyl)-3H-[1,2,3]triazolo[4,5-d]pyrimidin-3-yl)-1-(2-nitrophenyl)ethanone] the value was 231.6 to 231.7 °C; for `Nc1nc(-c2ccccc2)c2nnn(Cc3cccc([N+](=O)[O-])c3)c2n1` [Example 130, 3-(3-nitrobenzyl)-7-phenyl-3H-[1,2,3]triazolo[4,5-d]pyrimidine-5-amine], 149 to 149.6 °C.
Turning to `Cc1cc(Cn2nnc3c(-c4ccco4)nc(N)nc32)c2[nH]ccc2c1` [Example 243, 7-(2-furyl)-3-(5-methyl-7-indolylmethyl)-3H-[1,2,3]triazolo[4,5-d]pyrimidine-5-amine], the melting point is > 300 °C (dec.).
`COc1ccccc1Cn1nnc2c(-c3ccco3)nc(N)nc21` [Example 77, 7-(2-furyl)-3-(2-methoxybenzyl)-3H-[1,2,3]triazolo[4,5-d]pyrimidine-5-amine] returned a melting point of 212.1 to 214.3 °C.
For `Cc1cnc(Cn2nnc3c(-c4ccco4)nc(N)nc32)cn1` [Example 106, 7-(2-furyl)-3-(5-methyl-2-pyrazinylmethyl)-3H-[1,2,3]triazolo[4,5-d]pyrimidine-5-amine] the value was 288.1 to 288.2 °C; for `Nc1nc(-c2ccco2)c2nnn(Cc3ccc4c(c3)CCO4)c2n1` [Example 166, 3-(2,3-dihydrobenzofuran-5-ylmethyl)-7-(2-furyl)-3H-[1,2,3]triazolo[4,5-d]pyrimidine-5-amine], 210.3 to 211.2 °C; for `Cc1ccc(-c2nc(N)nc3c2nnn3Cc2cccc([N+](=O)[O-])c2C)o1` [Example 267, 7-(5-methyl-2-furyl)-3-(2-methyl-3-nitrobenzyl)-3H-[1,2,3]triazolo[4,5-d]pyrimidine-5-amine], 255.6 to 255.7 °C.
For `Cc1ccc(-c2nc(N)nc3c2nnn3Cc2ccc([N+](=O)[O-])cc2)o1` [Example 268, 7-(5-methyl-2-furyl)-3-(4-nitrobenzyl)-3H-[1,2,3]triazolo[4,5-d]pyrimidine-5-amine] the value was 248.1 to 249 °C; for `Nc1nc(-c2ccco2)c2nnn(Cc3ccc(Cl)cc3[N+](=O)[O-])c2n1` [Example 119, 3-(4-chloro-2-nitrobenzyl)-7-(2-furyl)-3H-[1,2,3]triazolo[4,5-d]pyrimidine-5-amine], greater than 230 °C; for `Nc1nc(-c2ccco2)c2nnn(Cc3cnccn3)c2n1` [Example 128, 7-(2-furyl)-3-(2-pyrazinylmethyl)-3H-[1,2,3]triazolo[4,5-d]pyrimidine-5-amine], 129.1 to 131 °C.
For `C[Si](C)(C)CCOCOc1cc([N+](=O)[O-])ccc1Cn1nnc2c(-c3ccco3)nc(N)nc21` the value was 136.5 to 137.6 °C; for `Nc1nc(-c2ccco2)c2nnn(Cc3ccc4[nH]ccc4c3)c2n1` [Example 153, 7-(2-furyl)-3-(5-indolylmethyl)-3H-[1,2,3]triazolo[4,5-d]pyrimidine-5-amine], 226.8 to 227.4 °C.
As to `CC(C)(C)OC(=O)n1ccc2c(Cn3nnc4c(-c5ccco5)nc(N)nc43)cccc21` [Example 138, tert-butyl 4-(5-amino-7-(2-furyl)-3H-[1,2,3]triazolo[4,5-d]pyrimidine-3-ylmethyl)indole-1-carboxylate], the melting point was in the range of 58.5 to 62.6 °C.
For `NCc1ccc(Cn2nnc3c(-c4ccco4)nc(N)nc32)cc1` [Example 144, 3-(4-aminomethylbenzyl)-7-(2-furyl)-3H-[1,2,3]triazolo[4,5-d]pyrimidine-5-amine] the value was > 300 °C (dec.); for `COc1ccc([N+](=O)[O-])cc1Cn1nnc2c(-c3ccco3)nc(N)nc21` [Example 66, 7-(2-Furyl)-3-(2-methoxy-5-nitrobenzyl)-3H-[1,2,3]triazolo[4,5-d]pyrimidine-5-amine], 243.4 to 243.9 °C; for `CS(=O)(=O)N(Cc1cccc(Cn2nnc3c(-c4ccco4)nc(N)nc32)n1)Cc1cccc(Cn2nnc3c(-c4ccco4)nc(N)nc32)n1` [Example 237, N,N-bis(6-(5-amino-7-(2-furyl)-3H-[1,2,3]triazolo[4,5-d]pyrimidine-3-ylmethyl)-2-pyridylmethyl)methanesulphonamide], 259.3 to 259.4 °C.
The same measure for `Nc1nc(-c2ccco2)c2nnn(Cc3cc4ccccc4[nH]3)c2n1` [Example 207, 3-(2-indolylmethyl)-7-(2-furyl)-3H-[1,2,3]triazolo[4,5-d]pyrimidine-5-amine]: 289.1 to 289.3 °C; for `COCc1cccc(Cn2nnc3c(-c4ccc(C)o4)nc(N)nc32)n1` [Example 183, 3-(6-methoxymethyl-2-pyridylmethyl)-7-(5-methyl-2-furyl)-3H-[1,2,3]triazolo[4,5-d]pyrimidine-5-amine]: 152 to 153.5 °C; for `Cc1ccc(-c2nc(N)nc3c2nnn3Cc2ccc([N+](=O)[O-])c(C)c2)o1` [Example 123, 7-(5-methyl-2-furyl)-3-(3-methyl-4-nitrobenzyl)-3H-[1,2,3]triazolo[4,5-d]pyrimidine-5-amine]: 214.6 to 216.2 °C.
For `Cc1c(N)cccc1Cn1nnc2c(-c3ccco3)nc(N)nc21` [Example 89, 3-(3-amino-2-methylbenzyl)-7-(2-furyl)-3H-[1,2,3]triazolo[4,5-d]pyrimidine-5-amine] the value was 247.1 to 247.2 °C; for `Nc1nc(-c2ccco2)c2nnn(Cc3cc(F)ccc3N)c2n1` [Example 171, 3-(2-amino-5-fluorobenzyl)-7-(2-furyl)-3H-[1,2,3]triazolo[4,5-d]pyrimidine-5-amine], 219.3 °C; for `Cc1ccc(-c2nc(N)nc3c2nnn3Cc2cc(N)ccc2F)o1` (as salt: hydrochloride) [Example 84, 3-(5-amino-2-fluorobenzyl)-7-(5-methyl-2-furyl)-3H-[1,2,3]triazolo[4,5-d]pyrimidine-5-amine hydrochloride], 235.8 to 236.5 °C.
With `CCc1cc(Cn2nnc3c(-c4ccco4)nc(N)nc32)ccn1` [Example 136, 3-(2-ethyl-4-pyridylmethyl)-7-(2-furyl)-3H-[1,2,3]triazolo[4,5-d]pyrimidine-5-amine], the melting point lay in the range of 172.7 to 173.2 °C.
For `COc1ccc(C(=O)Cn2nnc3c(-c4ccco4)nc(N)nc32)cc1` [Example 229, 2-(5-amino-7-(2-furyl)-3H-[1,2,3]triazolo[4,5-d]pyrimidin-3-yl)-1-(4-methoxyphenyl)ethanone] the value was 258.2 to 258.4 °C.
For `CCOc1cccc(Cn2nnc3c(-c4ccc(C)o4)nc(N)nc32)n1` [Example 254, 3-(6-ethoxy-2-pyridylmethyl)-7-(5-methyl-2-furyl)-3H-[1,2,3]triazolo[4,5-d]pyrimidine-5-amine] the value was 190.8 to 190.9 °C.
